Data taken from patent US6867192B1, “Compounds useful in the treatment of inflammatory diseases” (priority 1998, dated 2005).
pIC50: −log10 of the molar value.

What follows are compounds tested against T1, integrin α4β7, expressed on the RPMI 8866 (human B lymphoid cell line) cell membrane with MAdCAM-1 (Homo sapiens, UniProt P13612+P26010) (assay: RPMI 8866/MAdCAM-1 adhesion assay). Settings: RPMI 8866 cell adhesion to MAdCAM-1, 1 mM MnCl2; mean of n experiments.
T1 construct: integrin α4β7, expressed on the RPMI 8866 (human B lymphoid cell line) cell membrane; endogenous in cells; host or cells: RPMI 8866 cells (integrin). zzMAdCAM-1 was made in house in baculovirus-infected Spodoptera frugiperda cells
T1 sequence (P13612 34-1032): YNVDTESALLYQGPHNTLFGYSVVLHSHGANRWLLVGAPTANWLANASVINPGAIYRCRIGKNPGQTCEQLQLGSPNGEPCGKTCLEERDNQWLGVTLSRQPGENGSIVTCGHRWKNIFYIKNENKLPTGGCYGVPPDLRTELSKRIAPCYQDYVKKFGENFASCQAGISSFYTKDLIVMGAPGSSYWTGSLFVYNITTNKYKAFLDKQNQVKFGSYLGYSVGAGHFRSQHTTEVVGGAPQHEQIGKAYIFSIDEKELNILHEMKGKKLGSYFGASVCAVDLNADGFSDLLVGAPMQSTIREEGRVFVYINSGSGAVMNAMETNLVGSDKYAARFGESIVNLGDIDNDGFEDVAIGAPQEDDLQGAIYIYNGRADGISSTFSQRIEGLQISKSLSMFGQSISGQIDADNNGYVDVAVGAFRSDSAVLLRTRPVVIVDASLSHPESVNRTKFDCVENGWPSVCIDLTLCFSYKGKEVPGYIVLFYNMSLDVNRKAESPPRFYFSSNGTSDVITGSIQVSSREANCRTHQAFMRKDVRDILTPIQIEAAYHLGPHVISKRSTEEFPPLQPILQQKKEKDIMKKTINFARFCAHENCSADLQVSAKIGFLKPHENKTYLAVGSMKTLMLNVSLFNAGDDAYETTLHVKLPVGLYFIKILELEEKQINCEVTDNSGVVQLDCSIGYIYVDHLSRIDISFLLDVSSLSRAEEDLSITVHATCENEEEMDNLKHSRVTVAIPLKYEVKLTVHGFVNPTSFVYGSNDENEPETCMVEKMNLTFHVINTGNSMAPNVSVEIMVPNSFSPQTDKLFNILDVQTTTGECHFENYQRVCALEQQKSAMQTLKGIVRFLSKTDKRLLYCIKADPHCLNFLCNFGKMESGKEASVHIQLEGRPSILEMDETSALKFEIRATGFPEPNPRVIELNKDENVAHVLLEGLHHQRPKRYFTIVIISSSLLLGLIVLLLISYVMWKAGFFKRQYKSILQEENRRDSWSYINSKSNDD
T1 sequence (P26010 20-798): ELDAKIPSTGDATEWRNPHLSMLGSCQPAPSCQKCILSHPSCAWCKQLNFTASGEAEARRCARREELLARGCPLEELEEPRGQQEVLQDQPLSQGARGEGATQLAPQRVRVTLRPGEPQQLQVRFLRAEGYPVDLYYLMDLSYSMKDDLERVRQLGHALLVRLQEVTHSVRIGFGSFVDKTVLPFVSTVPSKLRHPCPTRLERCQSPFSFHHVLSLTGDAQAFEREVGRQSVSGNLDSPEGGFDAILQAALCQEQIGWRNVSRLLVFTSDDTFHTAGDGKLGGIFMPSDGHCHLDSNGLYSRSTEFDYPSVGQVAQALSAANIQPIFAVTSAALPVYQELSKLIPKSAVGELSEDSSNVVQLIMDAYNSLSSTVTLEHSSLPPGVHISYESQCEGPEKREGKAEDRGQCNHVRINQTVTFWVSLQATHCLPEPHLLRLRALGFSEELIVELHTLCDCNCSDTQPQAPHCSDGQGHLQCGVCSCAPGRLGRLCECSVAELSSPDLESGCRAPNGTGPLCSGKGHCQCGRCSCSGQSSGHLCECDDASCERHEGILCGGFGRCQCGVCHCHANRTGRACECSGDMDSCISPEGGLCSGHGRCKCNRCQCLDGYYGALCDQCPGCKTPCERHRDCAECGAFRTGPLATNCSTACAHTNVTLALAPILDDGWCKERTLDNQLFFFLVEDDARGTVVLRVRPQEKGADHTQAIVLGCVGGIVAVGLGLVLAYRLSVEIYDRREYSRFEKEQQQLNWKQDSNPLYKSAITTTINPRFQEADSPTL
Format: cell-based
Description: (4) RPMI 8866/MAdCAM-1 Adhesion Assay
This assay was used to investigate the interaction of the integrin α4β7, expressed on the RPMI 8866 (human B lymphoid cell line) cell membrane with MAdCAM-1. Polystyrene 96-well microtitre plates were coated with human immunoglobulin G (IgG; Sigma Chemicals, UK, Product No. 14506) at a concentration of 0.05 mg ml^−1 in bicarbonate buffer (36 mM NaHCO3 and 22 mM Na2CO3, prepared in Dulbecco's phosphate buffered saline at pH 9.8 (PBS); Sigma Chemicals, UK, Product No. 14190-094) for 2 hours at 37° C. This solution was then aspirated and the plates were washed twice with PBS.
MAdCAM-1 was prepared by cloning its constituent domains, under the control of a polyhedrin promoter, into a baculovirus expression system with a zz (Protein A) tag. The amplified baculovirus containing zzMAdCAM-1 was used to infect Spodoptera frugiperda cells growing in suspension in SF900II medium supplemented with 5% foetal calf serum. The cells were infected at a multiplicity of infection of 1 and harvested 48 hours later by centrifugation. Protease inhibitors were added and the culture supernatant was clarified either by filtration through a 0.2 μm filter or by centrifugation. The zzMAdCAM-1 was then purified from this clarified medium using an IgG agarose column, equilibrated with either 20 mM sodium phosphate pH 7.2 alone or in the presence of 0.5M sodium chloride. Elution of zzMAdCAM-1 from the column was mediated using 3M ammonium thiocyanate. The sample was then dialysed thoroughly, using 20 mM sodium phosphate pH 7.2, to remove the ammonium thiocyanate. The purified zzMAdCAM-1 was then concentrated to a small volume (Amicon stirred cell concentrators) until a concentration of 0.5 mg ml^−1 was obtained, calculated using the extinction coefficient value.
This solution of zzMAdCAM-1 was diluted 1:2500 and then incubated overnight at 4° C. in the IgG coated microtitre plates with 3% bovine serum albumin (BSA) in PBS, followed by aspiration and two further washes with PBS. A concentration of the RPMI 8866 cells (3×10^6 cells ml^−1), grown in cell media RPMI 1640 (HyClone Ltd, Product No. B-9106-L) supplemented with 10% heat inactivated foetal calf serum (FCS; Gibco BRL, Product No. 10099-075) and 2 mM L-glutamine, were labelled with 10 μM of the fluorescent dye, 2′, 7′-bis(2-carboxyethyl)-5-(e6)-carboxyfluorescein acetoxymethyl ester (BCECF-AM; Molecular Probes Inc. Product No. B-1150) at 37° C. for 10 minutes. The excess dye was then removed by centrifugation at 500×g for 5 minutes and the cells were resuspended at a concentration of 6×10^6 cells ml^−1 in Hank's balanced salt solution (HBSS; Gibco BRL, Product No. 1419D-094).
Equal volumes of compounds (dissolved in an appropriate solvent and diluted in HBSS containing 1 mM MnCl2) and the labelled RPMI 8866 cells, were added to the MAdCAM-1 coated plates and adhesion was allowed to proceed for 30 minutes at 37° C. Non, or loosely adhered cells, were removed by inversion of the plate and blotted with tissue paper. Two washes with PBS and further blotting were then performed, before the addition of 2% detergent (Triton-X®; Sigma Chemicals UK, Product No. X100). Counting was undertaken in a Wallac Victor™ Fluorimeter, where low fluorescence values were indicative of compounds which had inhibited adhesion. All samples were assayed in singlicate and the following four parameter curve fit, shown by Equation (I) (above) was applied. Wherein the maximum and minimum values are those compared to adhesion in the absence of compound and in the presence of the dipotassium salt of 2 mM EDTA; Sigma Chemicals, UK, Product No. ED2P). Data is presented as the mean pIC50 with the standard error of the mean of n experiments.

Structure (SMILES)	pIC50
CC(=O)N1CCN(C(=O)Oc2ccc(C[C@H](NC(=O)[C@H](CC(C)C)NC(=O)COc3ccccc3C)C(=O)O)cc2)CC1 [Example 17, (2S)-3-(4-{[(4-Acetyl-1-piperazinyl)carbonyl]oxy}phenyl)-2-[((2S)-4-methyl-2-{[2-(2-methylphenoxy)acetyl]amino}pentanoyl)amino]propanoic acid]	6.80
CC(=O)N1CCN(C(=O)Oc2ccc(C[C@H](NC(=O)[C@H](CC(C)C)NC(=O)COc3ccccc3C(C)(C)C)C(=O)O)cc2)CC1 [Example 16, (2S)-3-(4-{[(4-Acetyl-1-piperazinyl)carbonyl]oxy}phenyl)-2-{[(2S)-2-({2-[2-(tert-butyl)phenoxy]acetyl}amino)-4-methylpentanoyl]amino}propanoic acid]	6.80
CC(C)C[C@H](NC(=O)COc1ccccc1C(C)(C)C)C(=O)N[C@@H](Cc1ccc(OC(=O)N2CCN(C(=O)c3ccccc3)CC2)cc1)C(=O)O [Example 20, (2S)-3-(4-{[(4-Benzoyl-1-piperazinyl)carbonyl]oxy}phenyl)-2-{[(2S)-2-({2-[2-(tert-butyl)phenoxy]acetyl}amino)-4-methylpentanoyl]amino}propanoic acid]	6.70
Cc1ccccc1OCC(=O)N[C@@H](CC(C)C)C(=O)N[C@@H](Cc1ccc(OC(=O)N2CCN(C(=O)c3ccccc3)CC2)cc1)C(=O)O [Example 21, (2S)-3-(4-{[(4-Benzoyl-1-piperazinyl)carbonyl]oxy}phenyl)-2-[((2S)-4-methyl-2-{[2-(2-methylphenoxy)acetyl]amino}pentanoyl)amino]propanoic acid]	6.70

More lines, now with the values ahead:

pIC50	Structure (SMILES)
7.20	CC(C)C[C@H](NC(=O)COc1ccccc1I)C(=O)N[C@@H](Cc1ccc(OC(=O)N2CCOCC2)cc1)C(=O)O [Example 23, (2S)-2-[((2S)-2-{[2-(2-Iodophenoxy)acetyl]amino}-4-methylpentanoyl)amino]-3-{4-[(4-morpholinylcarbonyl)oxy]phenyl}propanoic acid]
6.90	CC(C)C[C@H](NC(=O)c1cccc2c1oc1ccccc12)C(=O)N[C@@H](Cc1ccc(OC(=O)N2CCC(C(N)=O)CC2)cc1)C(=O)O [Example 28, (2S)-3-[4-({[4-(Aminocarbonyl)-1-piperidinyl]carbonyl}oxy)phenyl]-2-({(2S)-2-[(dibenzo[b,d]furan-4-ylcarbonyl)amino]-4-methylpentanoyl}amino)propanoic acid]
7.50	Cc1ccccc1OCC(=O)N[C@@H](CC(C)C)C(=O)N[C@@H](Cc1ccc(OC(=O)N2CCC(C(N)=O)CC2)cc1)C(=O)O [Example 27, (2S)-3-[4-({[4-(Aminocarbonyl)-1-piperidinyl]carbonyl}oxy)phenyl]-2-[((2S)-4-methyl-2-{[2-(2-methylphenoxy)acetyl]amino}pentanoyl)amino]propanoic acid]
6.60	CC(C)C[C@H](NC(=O)COc1ccccc1C(C)(C)C)C(=O)N[C@@H](Cc1ccc(OC(=O)N2CCOCC2)cc1)C(=O)O [Example 24, (2S)-2-{[(2S)-2-({2-[2-(Tert-butyl)phenoxy]acetyl}amino)-4-methylpentanoyl]amino}-3-{4-[(4-morpholinylcarbonyl)oxy]phenyl}propanoic acid]
